# Where a SMILES comes first, the peptide text is derived from it. [ ]: non-standard residue; d: D form. hLeu = CC(C)CC[C@H](N)C(=O)O
# Biological target: T1, Interleukin-23 receptor (Homo sapiens, UniProt Q5VWK5)
# T1 sequence (Q5VWK5 whole entry): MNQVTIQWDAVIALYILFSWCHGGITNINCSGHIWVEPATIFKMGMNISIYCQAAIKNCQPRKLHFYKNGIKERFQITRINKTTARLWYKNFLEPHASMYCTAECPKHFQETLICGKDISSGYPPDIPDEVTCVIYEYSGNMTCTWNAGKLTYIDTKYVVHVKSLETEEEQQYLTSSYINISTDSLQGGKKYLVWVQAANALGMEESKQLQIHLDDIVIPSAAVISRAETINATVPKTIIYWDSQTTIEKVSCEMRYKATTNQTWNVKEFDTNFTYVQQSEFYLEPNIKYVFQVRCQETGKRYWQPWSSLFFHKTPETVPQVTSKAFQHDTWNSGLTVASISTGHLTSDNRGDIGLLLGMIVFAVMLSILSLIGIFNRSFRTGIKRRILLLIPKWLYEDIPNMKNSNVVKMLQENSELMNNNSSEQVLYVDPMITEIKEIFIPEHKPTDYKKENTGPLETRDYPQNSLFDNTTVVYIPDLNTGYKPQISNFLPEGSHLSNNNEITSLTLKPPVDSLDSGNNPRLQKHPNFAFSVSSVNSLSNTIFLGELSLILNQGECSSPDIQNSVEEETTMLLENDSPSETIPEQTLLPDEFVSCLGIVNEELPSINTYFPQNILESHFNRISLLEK
# Test: Inhibition of interleukin-23 binding to human interleukin-23 receptor incubated for 2 hrs by competitive binding ELISA
row,SMILES,IC50 [µM]
1,CC(=O)N[C@@H](CS)C(=O)N[C@@H](CCC(N)=O)C(=O)N[C@H](C(=O)N[C@@H](CCC(=O)O)C(=O)N[C@@H](CCC(N)=O)C(=O)N[C@@H](CS)C(=O)N[C@@H](Cc1ccc(O)cc1)C(=O)N[C@@H](Cc1c[nH]c2ccccc12)C(=O)N[C@@H](CCC(C)C)C(=O)N[C@@H](CCC(=O)O)C(=O)N[C@@H](CC(N)=O)C(=O)NCC(N)=O)[C@@H](C)O (Ac-CQTEQCYW[hLeu]ENG-NH2),> 10
2,CC(=O)N[C@@H](CS)C(=O)N[C@@H](CCC(N)=O)C(=O)N[C@H](C(=O)N[C@@H](Cc1c[nH]c2ccccc12)C(=O)N[C@@H](CCC(N)=O)C(=O)N[C@@H](CS)C(=O)N[C@@H](Cc1ccc(O)cc1)C(=O)N[C@@H](Cc1ccc(Cl)c(Cl)c1)C(=O)N[C@@H](CCCNC(=N)N)C(=O)N[C@H](C(=O)N[C@@H](CC(N)=O)C(=O)NCC(=O)NCCOCC(=O)N[C@H](CCCCN)C(N)=O)C(C)C)[C@@H](C)O,> 30
3,CC(=O)N[C@@H](CS)C(=O)N[C@@H](C)C(=O)N[C@@H](CC(=O)O)C(=O)N[C@@H](Cc1c[nH]c2ccccc12)C(=O)N[C@@H](CCCCNC(=O)COCC(=O)NCCCC[C@H](NC(=O)[C@H](Cc1c[nH]c2ccccc12)NC(=O)[C@H](CC(=O)O)NC(=O)[C@H](C)NC(=O)[C@H](CS)NC(C)=O)C(=O)N[C@@H](CS)C(=O)N[C@@H](Cc1ccc(O)cc1)C(=O)N[C@@H](Cc1c[nH]c2ccccc12)C(=O)N[C@@H](Cc1cnc[nH]1)C(=O)N[C@H](C(=O)N[C@@H](Cc1ccccc1)C(=O)NCC(=O)O)[C@@H](C)O)C(=O)N[C@@H](CS)C(=O)N[C@@H](Cc1ccc(O)cc1)C(=O)N[C@@H](Cc1c[nH]c2ccccc12)C(=O)N[C@@H](Cc1cnc[nH]1)C(=O)N[C@H](C(=O)N[C@@H](Cc1ccccc1)C(=O)NCC(=O)O)[C@@H](C)O,> 10
4,CC(=O)N[C@@H](CS)C(=O)N[C@@H](C)C(=O)N[C@@H](CC(=O)O)C(=O)N[C@@H](Cc1c[nH]c2ccccc12)C(=O)N[C@H](C(=O)N[C@@H](CS)C(=O)N[C@@H](Cc1ccc(O)cc1)C(=O)N[C@@H](Cc1c[nH]c2ccccc12)C(=O)N[C@@H](CCCN)C(=O)N[C@@](C)(CC(C)C)C(=O)N[C@@H](Cc1ccccc1)C(=O)NCC(=O)NCCOCC(=O)N[C@H](CCCCN)C(N)=O)C(C)C,6
5,CC(C)[C@H](NC(=O)[C@H](Cc1c[nH]c2ccccc12)NC(=O)[C@H](CC(=O)O)NC(=O)[C@H](C)NC(=O)[C@@H](N)CS)C(=O)N[C@@H](CS)C(=O)N[C@@H](Cc1ccc(O)cc1)C(=O)N[C@H](CC(=O)N[C@@H](Cc1cnc[nH]1)C(=O)N[C@H](C(=O)N[C@@H](Cc1ccccc1)C(=O)NCC(N)=O)[C@@H](C)O)Cc1c[nH]c2ccccc12,> 1
6,CC(=O)N[C@@H](CS)C(=O)N[C@@H](C)C(=O)N[C@@H](CC(=O)O)C(=O)N[C@@H](Cc1c[nH]c2ccccc12)C(=O)N[C@@H](CCCCN)C(=O)N[C@@H](CS)C(=O)N[C@@H](Cc1ccc(O)cc1)C(=O)N[C@@H](Cc1c[nH]c2ccccc12)C(=O)N[C@@H](Cc1cnc[nH]1)C(=O)N[C@H](C(=O)N[C@@H](Cc1ccccc1)C(=O)NCC(=O)O)[C@@H](C)O,> 1
7,CC(=O)N[C@@H](CS)C(=O)N[C@@H](C)C(=O)N[C@@H](CC(=O)O)C(=O)N[C@@H](Cc1c[nH]c2ccccc12)C(=O)N[C@H](C(=O)N[C@@H](CS)C(=O)N[C@@H](Cc1ccc(O)cc1)C(=O)N[C@@](C)(Cc1ccc(F)cc1)C(=O)N[C@@H](CCCN)C(=O)N[C@@H](CN)C(=O)N[C@@H](Cc1ccccc1)C(=O)NCC(=O)NCCOCC(=O)N[C@H](CCCCN)C(N)=O)C(C)C,> 30
8,CC(=O)N[C@@H](CS)C(=O)N[C@@H](C)C(=O)N[C@@H](CC(=O)O)C(=O)N[C@@H](Cc1c[nH]c2ccccc12)C(=O)N[C@H](C(=O)N[C@@H](CS)C(=O)N[C@@H](Cc1ccc(O)cc1)C(=O)N[C@@H](Cc1cccc2ccccc12)C(=O)N[C@@H](Cc1ccccc1)C(=O)N[C@H](C(=O)N[C@@H](Cc1ccccc1)C(=O)NCC(N)=O)[C@@H](C)O)C(C)C,> 1
9,CC(=O)N[C@@H](CS)C(=O)N[C@@H](CCC(N)=O)C(=O)N[C@H](C(=O)N[C@@H](Cc1c[nH]c2ccccc12)C(=O)N[C@@H](CCC(N)=O)C(=O)N[C@@H](CS)C(=O)N[C@@H](Cc1ccc(O)cc1)C(=O)N[C@@H](Cc1c[nH]c2ccccc12)C(=O)N[C@@H](CCCNC(=N)N)C(=O)N[C@@H](CN)C(=O)N[C@@H](CC(N)=O)C(=O)NCC(=O)NCCOCC(=O)N[C@H](CCCCN)C(N)=O)[C@@H](C)O,< 0.5
10,N=C(N)NCCC[C@H](NC(=O)[C@H](Cc1c[nH]c2ccccc12)NC(=O)[C@H](Cc1ccc(O)cc1)NC(=O)[C@@H]1CSCCCC(=O)N[C@@H](CCC(N)=O)C(=O)N[C@@H](CC(=O)O)C(=O)N[C@@H](Cc2c[nH]c3ccccc23)C(=O)N[C@@H](CCC(N)=O)C(=O)N1)C(=O)N[C@@H](CCC(=O)O)C(=O)N[C@@H](CC(N)=O)C(=O)NCC(=O)NCCOCC(=O)N[C@H](CCCCN)C(N)=O,6
11,CC(C)[C@H](NC(=O)[C@H](Cc1c[nH]c2ccccc12)NC(=O)[C@@H](NC(=O)[C@H](CCC(N)=O)NC(=O)[C@@H](N)CS)[C@@H](C)O)C(=O)N[C@@H](CS)C(=O)N[C@@H](Cc1ccc(O)cc1)C(=O)N[C@@H](Cc1c[nH]c2ccccc12)C(=O)N[C@@H](Cc1cnc[nH]1)C(=O)N[C@H](C(=O)N[C@@H](Cc1ccc(O)cc1)C(=O)NCC(N)=O)[C@@H](C)O (H-CQTWVCYWHTYG-NH2),> 1
12,CC(=O)N[C@@H](CS)C(=O)N[C@@H](C)C(=O)N[C@@H](CC(=O)O)C(=O)N[C@@H](Cc1c[nH]c2ccccc12)C(=O)N[C@H](C(=O)N[C@@H](CS)C(=O)N[C@@H](Cc1ccc(O)cc1)C(=O)N[C@@H](Cc1c[nH]c2ccccc12)C(=O)N[C@@H](Cc1cnc[nH]1)C(=O)N[C@H](C(=O)N[C@@H](Cc1cnc[nH]1)C(=O)NCC(=O)N[C@@H](CCC(=O)O)C(=O)N[C@@H](CCCNC(=N)N)C(N)=O)[C@@H](C)O)C(C)C,< 0.5
13,CC(C)[C@H](NC(=O)[C@H](Cc1c[nH]c2ccccc12)NC(=O)[C@H](CC(=O)O)NC(=O)[C@H](C)NC(=O)[C@@H](N)CS)C(=O)N[C@@H](CS)C(=O)N[C@@H](Cc1ccc(O)cc1)C(=O)N[C@@H](Cc1c[nH]c2ccccc12)C(=O)N[C@@H](Cc1cnc[nH]1)C(=O)N[C@H](C(=O)N[C@@H](Cc1ccccc1)C(=O)NCC(=O)N[C@@H](CCCCN)C(=O)O)[C@@H](C)O,> 1
14,CC(=O)NCC(=O)N[C@@H](CC(=O)O)C(=O)N[C@@H](Cc1cnc[nH]1)C(=O)N[C@@H](CCCCN)C(=O)N[C@@H](CS)C(=O)N[C@@H](CO)C(=O)N[C@@H](CO)C(=O)N[C@@H](Cc1c[nH]c2ccccc12)C(=O)N[C@@H](CCC(=O)O)C(=O)N[C@@H](CS)C(=O)N[C@@H](Cc1ccc(O)cc1)C(=O)N[C@@H](Cc1c[nH]c2ccccc12)C(=O)N[C@@H](Cc1cnc[nH]1)C(=O)N[C@H](C(=O)N[C@@H](Cc1ccccc1)C(=O)NCC(N)=O)[C@@H](C)O (Ac-GDHKCSSWECYWHTFG-NH2),0.5 to 1
15,CC(=O)NCCCC[C@H](NC(=O)[C@](C)(CCCCN)NC(=O)[C@H](Cc1ccc2ccccc2c1)NC(=O)[C@H](CCc1ccc(O)cc1)NC(=O)[C@@H]1CSCC[C@H](NC(C)=O)C(=O)N[C@@H](CCC(N)=O)C(=O)N[C@@H]([C@@H](C)O)C(=O)N[C@@H](Cc2c[nH]c3ccccc23)C(=O)N[C@@H](CCC(N)=O)C(=O)N1)C(=O)N[C@@H](CC(N)=O)C(=O)NCC(N)=O,> 1
